Results: patent publication EP1733725B2, “Pharmaceutical solution comprising ritonavir, a solvent (long chain fatty acid) and water” (ABBOTT LABORATORIES, priority 1999, dated 2000)
Like-named read-outs stand apart in the source and are kept apart here.

Test: oral bioavailability in dogs
Type: in vivo, beagle dogs
Conditions: dog, 5 mg/kg
Experimental: Protocol for Oral Bioavailability
Dogs (beagle dogs, mixed sexes, weighing 7-14 kg) were fasted overnight prior to dosing, but were permitted water ad libitum. Each dog received a 100 µg/kg subcutaneous dose of histamine approximately 30 minutes prior to dosing. Each dog received a single dosage form corresponding to a 5 mg/kg dose of the drug. The dose was followed by approximately 10 milliliters of water. Blood samples were obtained from each animal prior to dosing and 0.25, 0.5, 1.0, 1.5, 2, 3, 4, 6, 8, 10, and 12 hours after drug administration. The plasma was separated from the red cells by centrifugation and frozen (-30 °C) until analysis. Concentrations of parent drug were determined by reverse phase HPLC with low wavelength UV detection following liquid-liquid extraction of the plasma samples. The parent drug area under the curve was calculated by the trapezoidal method over the time course of the study. The absolute bioavailability of each test composition as calculated by comparing the area under the curve after oral dosing to that obtained from a single intravenous dose. Each capsule or capsule composition was evaluated in a group containing at least six dogs; the values reported are averages for each group of dogs.

Structure (SMILES) | bioavailability (in vivo, administered as an unformulated solid in a capsule dosage form, 5 mg/kg oral dose in dogs, read-out: bioavailability) [%] | bioavailability (both sexes, beagle, plasma, administered as an unformulated solid in a capsule dosage form, 5 mg/kg oral dose in dogs, read-out: bioavailability) [%] | bioavailability (both sexes, beagle, plasma, solution in pharmaceutically acceptable organic solvents with long chain fatty acid, as encapsulated dosage form (soft elastic capsules or hard gelatin capsules), printed 'as high as about 60% or more', read-out: oral bioavailability) [%]
CC(C)c1nc(CN(C)C(=O)NC(C(=O)NC(Cc2ccccc2)CC(O)C(Cc2ccccc2)NC(=O)OCc2cncs2)C(C)C)cs1 (stereo not drawn) [bistosylate] | < 2 | – | –
CC(C)c1nc(CN(C)C(=O)N[C@H](C(=O)N[C@@H](Cc2ccccc2)C[C@H](O)[C@H](Cc2ccccc2)NC(=O)OCc2cncs2)C(C)C)cs1 [compound of formula III] | – | < 2 | ~60
